{"source": "paper PMC3841297", "about": "(Chemical biology & drug design, 2013)", "molecular_target": "SrtA (SrtAΔN59, residue 60–206) (Staphylococcus aureus, UniProt Q2FV99)", "assay": "SrtA enzymatic inhibition, FRET assay", "type": "biochemical"}
{"compound": "O=C(O)COc1ccccc1C1Nc2cccc3cccc(c23)N1", "note": "[Compound 1, (2-(2,3-dihydro-1H-perimidin-2-yl)-phenoxy)-acetic acid]", "values": [{"measurement": "IC50", "result": "47.2 ± 5.9", "unit": "µM"}]}
